{"source": "patent US8648116B2", "about": "“Derivatives of N-(arylamino) sulfonamides including polymorphs as inhibitors of MEK as well as compositions, methods of use and methods for preparing the same” (Ardea Biosciences, Inc., priority 2005, dated 2014)", "key": {"Colo205 tumor cells": {"system": "Colo205 tumor cells", "assay": "ED50 in Colo205 xenografts (Example 94D)", "type": "in vivo, nu/nu mice", "details": "Paclitaxel 30 mg/kg IV QODx5, Colo205 xenografts", "source_text": "Male nu/nu mice were implanted with Colo205 tumor cells. After 10 days animals were randomized by tumor size (range 126-256 mm^3) and treated with paclitaxel (IV, QODx5), vehicle or Compound A (PO, QDx14)."}, "[1]": {"system": "human A375 melanoma xenografts"}, "[2]": {"system": "COLO 205 human colon carcinoma xenografts", "assay": "Activity against subcutaneous COLO 205 xenografts (Example 118)", "method": "Dosing solutions of Compound A were prepared fresh daily by dissolving the required amount of compound in 100% Cremophor EL, and then diluting ten-fold with normal saline. Final dosing solution concentrations were 2.5, 5, 10, or 20 mg/mL, in order to provide respective doses of 25, 50, 100 or 200 mg/kg in a dosing volume of 10 mL/kg. Paclitaxel (Natural Pharmaceuticals, Inc.) was prepared fresh on each day of dosing in a vehicle consisting of 5% ethanol and 5% Cremophor EL in 90% D5W (5% EC vehicle).\nGroup 1 received the formulation vehicle (10% Cremophor EL in saline), and served as the tumor growth control group. Group 2 received the reference drug paclitaxel administered on its optimal schedule in nude mice (30 mg/kg i.v. qod×5). […] All doses were scaled to the weight of the animal (0.2 mL per 20 grams body weight).\nTumors were measured twice each week using calipers. […] Therefore endpoint tumor size of 800 mm^3 was used for analysis of tumor growth delay (TGD).\n[formula] where b is the intercept and m is the slope of the line obtained by linear regression of a log-transformed tumor growth data set."}, "MDA pERK": {"system": "MDA pERK", "assay": "MDA pERK ELISA", "type": "cell-based"}, "A375 cells": {"system": "A375 cells", "assay": "Evaluation of cell cycle arrest (propidium iodide, flow cytometry)", "type": "cell-based, human", "details": "24 hr", "protocol": "A375 cells were plated in 96-well microplates at 10,000 cells/200 μl/well. […] After another 24 hr, cells were trypsinized, fixed in 200 μl Prefer (Anatech, Battle Creek, Mich.), and stored at 4° C. overnight. Cells were then rinsed in PBS, permeabilized and stained in 0.1% Triton X-100, 200 μg/ml DNase-free RNase, and […] propidium iodide (Molecular Probes, Sunnyvale, Calif.), and analyzed on the Guava PCA-96 (Guava Technologies, Foster City, Calif.). Data were analyzed using ModFit LT (version 3.0, Verity, Topsham, Me.)."}, "[3]": {"system": "Complete Freund's Adjuvant induced arthritis", "assay": "Rat adjuvant arthritis inflammation assay", "type": "in vivo, rats", "details": "10 mg/kg subcutaneous on days 1 and 4", "protocol": "In the rat adjuvant induced arthritis model, Complete Freund's Adjuvant (CFA) is injected into the right hind paw of rats to induce pathologies similar to rheumatoid arthritis in humans. Compound A was administered orally for 5 consecutive days at 2, 6, and 20 mg/kg. Dexamethasone at 5 m g/kg was also administered orally for 5 days. Enbrel at 10 mg/kg was administered by subcutaneous injection on days 1 and 4. CFA was injected into the right hind paw one hour after the first dose on day 1. […] Polyarthritis was scored as the presence of swelling in front paws, tail, nose or ear."}, "[4]": {"assay": "Dynamic vapor sorption/desorption (DVS)", "type": "physicochemical", "details": "Form A; 5% to 95% relative humidity", "protocol": "Moisture sorption/desorption data were collected on a VTI SGA-100 Vapor Sorption Analyzer. Sorption and desorption data were collected over a range of 5% to 95% relative humidity (RH) at 10% RH intervals under a nitrogen purge. Samples were not dried prior to analysis. Equilibrium criteria used for analysis were less than 0.0100% weight change in 5 minutes, with a maximum equilibration time of 3 hours if the weight criterion was not met. Data were not corrected for the initial moisture content of the samples. Sodium chloride and polyvinypyrrolidine were used as calibration standards."}, "[5]": {"details": "Group 2: Paclitaxel 30 mg/kg iv qod×5"}, "[6]": {"details": "Group 2: Paclitaxel 30 mg/kg iv qod×5, n=9"}, "[7]": {"details": "Group 2, paclitaxel 30 mg/kg iv qod × 14 per the 39th table (qod×5), n=9"}}, "note": "Like-named read-outs stand apart in the source and are kept apart here. Marks after values point to notes of the source that are not given here.", "data": [{"compound": "CC(=O)O[C@H]1C(=O)[C@@]2(C)[C@H]([C@H](OC(=O)c3ccccc3)[C@]3(O)C[C@H](OC(=O)[C@H](O)[C@@H](NC(=O)c4ccccc4)c4ccccc4)C(C)=C1C3(C)C)[C@]1(OC(C)=O)CO[C@@H]1C[C@@H]2O", "note": "[paclitaxel, reference compound]", "values": [{"measurement": "Day 15 Tumor Volume", "setting": "Colo205 tumor cells", "value": "113 ± 9.6", "unit": "mm^3"}, {"measurement": "% TGI", "setting": "Colo205 tumor cells; Day 15", "value": "104* %"}, {"measurement": "Median TTE", "setting": "[1]; Group 2, 30 mg/kg iv qod×5", "value": 28.8, "unit": "days"}, {"measurement": "TGD", "setting": "[1]; Group 2, 30 mg/kg iv qod×5", "value": 26, "unit": "%"}, {"measurement": "tumor regressions", "setting": "[1]; Group 2, 30 mg/kg iv qod×5", "value": "No tumor regressions"}, {"measurement": "% TGD", "setting": "[1]; [5]", "value": 26, "unit": "%"}, {"measurement": "Median TTE", "setting": "[1]; [5]", "value": 28.8, "unit": "days"}, {"measurement": "T − C", "setting": "[1]; [5]", "value": 6.0, "unit": "days"}, {"measurement": "Regressions CR", "setting": "[1]; [6]", "value": 0}, {"measurement": "Regressions PR", "setting": "[1]; [6]", "value": 0}, {"measurement": "Regressions TFS", "setting": "[1]; [6]", "value": 0}, {"measurement": "PR responses", "setting": "[2]; Group 2, 30 mg/kg i.v. qod×5", "value": "Five"}, {"measurement": "MTV", "setting": "[2]; Group 2, 30 mg/kg i.v. qod×5, Day 74", "value": 143, "unit": "mm^3"}, {"measurement": "% TGD", "setting": "[2]; [7]", "value": 46, "unit": "%"}, {"measurement": "MTV (n) Day 74", "setting": "[2]; [7]", "value": "0 (3)"}, {"measurement": "Median TTE", "setting": "[2]; [7]", "value": 60.0, "unit": "days"}, {"measurement": "No of CR", "setting": "[2]; [7]", "value": 0}, {"measurement": "No of NTR (non-treatment-related deaths)", "setting": "[2]; [7]", "value": 2}, {"measurement": "No of PR", "setting": "[2]; [7]", "value": 1}, {"measurement": "No of TFS", "setting": "[2]; [7]", "value": 0}, {"measurement": "No of TR (treatment-related deaths)", "setting": "[2]; [7]", "value": 2}, {"measurement": "SS (statistical significance, logrank vs Group 1)", "setting": "[2]; [7]", "value": "ns"}, {"measurement": "T − C", "setting": "[2]; [7]", "value": 19.0, "unit": "days"}]}, {"compound": "O=S(=O)(Nc1ccc(F)c(F)c1Nc1ccc(I)cc1F)c1ccsc1", "note": "[Example 0620927]", "values": [{"measurement": "EC50", "setting": "MDA pERK", "value": "0.015 to 0.1", "unit": "µM"}]}, {"compound": "COc1cc(F)c(F)c(Nc2ccc(I)cc2F)c1NS(=O)(=O)C1(C[C@H](O)CO)CC1", "note": "[listing 1 of 2 here]", "values": [{"measurement": "Phase % G1", "setting": "A375 cells; 37 nM", "value": 74.3, "unit": "%"}, {"measurement": "Phase % G2", "setting": "A375 cells; 37 nM", "value": 7.0, "unit": "%"}, {"measurement": "Phase % S", "setting": "A375 cells; 37 nM", "value": 18.7, "unit": "%"}, {"measurement": "Phase % G1", "setting": "A375 cells; 111 nM", "value": 84.7, "unit": "%"}, {"measurement": "Phase % G2", "setting": "A375 cells; 111 nM", "value": 3.5, "unit": "%"}, {"measurement": "Phase % S", "setting": "A375 cells; 111 nM", "value": 11.8, "unit": "%"}]}, {"compound": "CS(=O)(=O)Nc1ccc(-c2ccc(Nc3c(NS(=O)(=O)C4CC4)ccc(F)c3F)c(F)c2)cc1", "note": "[Example 0499271]", "values": [{"measurement": "EC50", "setting": "MDA pERK", "value": "> 0.2", "unit": "µM"}]}, {"compound": "CN(C)CCNCCS(=O)(=O)Nc1ccc(F)c(F)c1Nc1ccc(I)cc1F", "note": "[Example 0621016]", "values": [{"measurement": "EC50", "setting": "MDA pERK", "value": "0.015 to 0.1", "unit": "µM"}]}, {"compound": "O=S(=O)(Nc1ccc(F)c(F)c1Nc1ccc(-c2ccncc2)cc1F)C1CC1", "note": "[Example 0497688]", "values": [{"measurement": "EC50", "setting": "MDA pERK", "value": "> 0.2", "unit": "µM"}]}, {"compound": "O=S(=O)(Nc1ccc(F)c(F)c1Nc1ccc(-c2cc[nH]n2)cc1F)C1CC1", "note": "[Example 0497654]", "values": [{"measurement": "EC50", "setting": "MDA pERK", "value": "0.1 to 0.2", "unit": "µM"}]}, {"compound": "enbrel", "values": [{"measurement": "animals without swelling in the tail (polyarthritis scoring)", "setting": "[3]", "value": "3 of 6"}, {"measurement": "protection from front paw swelling (polyarthritis scoring)", "setting": "[3]", "value": "no animals were protected"}]}, {"compound": "O=S(=O)(Nc1ccc(F)c(F)c1Nc1ccc(-c2ccccc2)cc1F)C1CC1", "note": "[Example 0497692]", "values": [{"measurement": "EC50", "setting": "MDA pERK", "value": "> 0.2", "unit": "µM"}]}, {"compound": "COc1cc(F)c(F)c(Nc2ccc(I)cc2F)c1NS(=O)(=O)C1(C[C@H](O)CO)CC1", "note": "[listing 2 of 2 here]", "values": [{"measurement": "weight change in DVS", "setting": "[4]", "value": "negligible weight change"}]}, {"compound": "O=S(=O)(Nc1ccc(F)c(F)c1Nc1ccc(I)cc1F)c1ccc(-c2nsc(Cl)n2)s1", "note": "[Example 0530701]", "values": [{"measurement": "EC50", "setting": "MDA pERK", "value": "0.1 to 0.2", "unit": "µM"}]}]}
